{
  "source": "BindingDB's records for doi:10.1016/j.ejmech.2016.01.046",
  "about": "(Italian Institute of Technology, 2016)",
  "target": "T1, N-acylethanolamine-hydrolyzing acid amidase (Homo sapiens, UniProt Q02083)",
  "T1 sequence (Q02083 whole entry)": "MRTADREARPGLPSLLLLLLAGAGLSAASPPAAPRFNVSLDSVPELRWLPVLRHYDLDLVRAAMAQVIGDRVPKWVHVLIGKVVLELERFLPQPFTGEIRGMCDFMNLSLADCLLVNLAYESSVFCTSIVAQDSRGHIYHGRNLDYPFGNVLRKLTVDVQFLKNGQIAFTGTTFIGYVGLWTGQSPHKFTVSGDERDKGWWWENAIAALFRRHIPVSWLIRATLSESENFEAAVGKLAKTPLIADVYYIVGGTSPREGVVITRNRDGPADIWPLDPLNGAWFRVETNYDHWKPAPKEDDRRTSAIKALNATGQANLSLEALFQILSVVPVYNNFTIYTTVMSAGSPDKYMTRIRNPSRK",
  "assay": "ChEBML_1558887",
  "protocol": "Inhibition of human NAAA expressed in HEK293 cells preincubated for 10 mins followed by N-(4-methyl-2-oxo-chromen-7-yl)-hexadecanamide substrate addition for 30 mins by microplate reader analysis",
  "data": [
    {"smiles": "COc1ccc(CCCCOC(=O)N[C@H]2CNC2=O)cc1", "values": [
      {"measurement": "IC50", "result": 520, "unit": "nM"}
    ]}
  ]
}
